Measurements published in the supplement of paper PMC4858399.

Columns and labels:
[1] = test system: Caenorhabditis elegans N2; assay: lowest effective concentration for larval growth inhibition (size below effect threshold); higher = less potent; conditions: exposure time 48 h
How it was run: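 Each well of a 96-well plate received 50 C. elegans N2 L1 larvae, which grew for 48 h at 20°C in K-medium containing killed bacteria, 1% DMSO and the chemical at 0.5, 1, 5, 10, 50, 100 or 200 µM. A Biosort recorded the extinction of every worm as its size, and these readings were log-transformed and averaged per well. The lowest effective concentration is defined as the first dose at which the plate-adjusted mean size falls below the threshold and stays below it at all higher doses; that threshold is 5.665.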

[2] = test system: Caenorhabditis elegans N2; assay: mean nematode size ln(EXT) after 48 h, plate-adjusted (DMSO control set to 6) (ln(EXT), control-adjusted); higher = larger nematodes / less growth inhibition; conditions: exposure time 48 h
How it was run: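 Synchronised C. elegans N2 L1 larvae (50 per well, 4–6 wells per treatment) were grown for 48 h at 20°C in K-medium with killed OP50, 1% DMSO and 0.5–200 µM chemical. The Biosort measured each worm's extinction, and debris was removed by a growth model. Values were natural-logged and averaged per well. Mean size was then plate-adjusted by subtracting the vehicle control mean and adding 6.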

SMILES | lowest effective concentration [1] | mean nematode size ln(EXT) (ln) ([2]; 0.5 µM) | mean nematode size ln(EXT) (ln) ([2]; 1 µM) | mean nematode size ln(EXT) (ln) ([2]; 5 µM) | mean nematode size ln(EXT) (ln) ([2]; 10 µM) | mean nematode size ln(EXT) (ln) ([2]; 50 µM) | mean nematode size ln(EXT) (ln) ([2]; 100 µM) | mean nematode size ln(EXT) (ln) ([2]; 200 µM)
O=[N+]([O-])c1ccc(O)cc1 [Sodium p-nitrophenolate] | > 200 µM | 5.95 | 5.97 | 5.92 | 5.98 | 6.15 | 5.81 | 5.87
OC[C@H]1O[C@@H]2O[C@H]3[C@H](O)[C@@H](O)[C@@H](O[C@H]4[C@H](O)[C@@H](O)[C@@H](O[C@H]5[C@H](O)[C@@H](O)[C@@H](O[C@H]6[C@H](O)[C@@H](O)[C@@H](O[C@H]7[C@H](O)[C@@H](O)[C@@H](O[C@H]1[C@H](O)[C@H]2O)O[C@@H]7CO)O[C@@H]6CO)O[C@@H]5CO)O[C@@H]4CO)O[C@@H]3CO [alpha-Cyclodextrin] | > 200 µM | 5.83 | 5.83 | 5.77 | 5.87 | 5.88 | 5.82 | 5.74
C1CC2OC2CC1C1CO1 (mixture of isomers) [Vinylcyclohexene dioxide, mixture of isomers] | > 200 µM | 5.91 | 5.97 | 5.93 | 5.74 | 5.93 | 5.91 | 5.7
CC(=O)OC[C@H]1O[C@@](COC(C)=O)(O[C@H]2O[C@H](COC(C)=O)[C@@H](OC(C)=O)[C@H](OC(C)=O)[C@H]2OC(C)=O)[C@@H](OC(C)=O)[C@@H]1OC(C)=O [Sucrose octaacetate] | > 200 µM | 5.78 | 5.75 | 5.76 | 5.75 | 5.72 | 5.75 | 5.73
CCCC(=O)OCCC(C)C [Isoamyl butyrate] | > 200 µM | 5.92 | 5.91 | 5.91 | 6.05 | 5.81 | 5.9 | 6.13
O=C1O[C@H]([C@H](O)CO)C([O-])=C1O.[Na+] [Sodium erythorbate] | > 200 µM | 5.96 | 5.89 | 5.94 | 5.98 | 6 | 5.9 | 5.68
Cc1cccc([N+](=O)[O-])c1 [3-Nitrotoluene] | > 200 µM | 5.78 | 5.89 | 5.82 | 5.77 | 5.93 | 5.88 | 5.85
COc1c(Cl)ccc(Cl)c1C(=O)O [Dicamba] | > 200 µM | 5.78 | 5.92 | 5.72 | 5.98 | 6.18 | 6.37 | 6.03
COS(C)(=O)=O [Methyl methanesulfonate] | > 200 µM | 5.92 | 5.9 | 5.9 | 5.87 | 5.81 | 5.52 | 5.89
OCCCl [2-Chloroethanol] | > 200 µM | 6 | 5.9 | 5.92 | 5.82 | 5.91 | 5.95 | 5.83
CCCCc1ccc2c(n1)[C@@H](c1ccc(OC)cc1C[C@H](C)C(=O)O)[C@H](C(=O)O)[C@H]2c1ccc2c(c1)OCO2 | > 200 µM | 5.82 | 5.87 | 5.83 | 6.32 | 5.91 | 5.95 | 5.88
N#CCCCCC#N [Hexanedinitrile] | > 200 µM | 5.89 | 5.82 | 5.87 | 5.81 | 5.96 | 5.75 | 5.8
CC(C)(C)c1ccc(O)cc1 [4-tert-Butylphenol] | > 200 µM | 5.86 | 5.91 | 5.92 | 5.94 | 5.91 | 5.81 | 5.71
c1ccc(C2CO2)cc1 (centres undefined) [Styrene oxide] | > 200 µM | 6.05 | 6.04 | 6.03 | 6.01 | 6.03 | 6.03 | 5.89
Cc1nc(-c2ccccn2)ncc1C(=O)Nn1cc(C)c2cc(F)ccc21 | > 200 µM | 5.82 | 5.84 | 5.9 | 5.83 | 5.73 | 5.77 | 5.86
CCCCCCOCCO [Ethylene glycol monohexyl ether] | > 200 µM | 5.81 | 6.03 | 5.9 | 5.93 | 5.72 | 5.89 | 5.77
CC(O)CO (centres undefined) [Propylene glycol] | > 200 µM | 6.09 | 5.99 | 6.05 | 6.02 | 5.91 | 5.9 | 5.71
COc1cc(S(=O)(=O)O)c(C)cc1N=Nc1c(O)ccc2cc(S(=O)(=O)O)ccc12 [Allura red] | > 200 µM | 5.71 | 5.75 | 5.76 | 5.79 | 5.72 | 5.67 | 5.86
c1ccc2ncccc2c1 [Quinoline] | > 200 µM | 5.87 | 5.87 | 5.78 | 5.79 | 5.78 | 5.81 | 5.73
CC1=NNC(=O)N(/N=C/c2cccnc2)C1 [Pymetrozine] | > 200 µM | 5.74 | 5.77 | 5.8 | 5.78 | 5.77 | 5.89 | 5.76
CCOC(=O)c1ccccc1C(=O)OCC [Diethyl phthalate] | > 200 µM | 5.92 | 5.85 | 5.82 | 5.76 | 5.94 | 5.81 | 5.79
Nc1ccc([N+](=O)[O-])cc1 [4-Nitroaniline] | > 200 µM | 5.76 | 5.77 | 5.73 | 5.64 | 5.68 | 5.69 | 5.72
Oc1cccc(O)c1 [Resorcinol] | > 200 µM | 5.81 | 5.86 | 5.94 | 5.84 | 5.88 | 5.84 | 5.78
CSc1nnc(C(C)(C)C)c(=O)n1N [Metribuzin] | > 200 µM | 5.83 | 5.88 | 5.91 | 5.85 | 5.84 | 5.87 | 5.78
CCCOC(=O)c1ccc(O)cc1 [Propylparaben] | > 200 µM | 5.95 | 5.95 | 5.9 | 5.92 | 5.84 | 5.87 | 5.79
Cc1cccc(N)c1 [3-Methylaniline] | > 200 µM | 5.82 | 5.86 | 5.86 | 5.88 | 5.91 | 5.99 | 5.79
CC(C)C1(C)N=C(c2nc3ccccc3cc2C(=O)O)NC1=O (centres undefined) [Imazaquin] | > 200 µM | 6.13 | 6.14 | 6.13 | 6.33 | 6.08 | 6.06 | 6.1

SMILES | lowest effective concentration [1] | mean nematode size ln(EXT) (ln) ([2]; 0.5 µM) | mean nematode size ln(EXT) (ln) ([2]; 1 µM) | mean nematode size ln(EXT) (ln) ([2]; 5 µM) | mean nematode size ln(EXT) (ln) ([2]; 10 µM) | mean nematode size ln(EXT) (ln) ([2]; 50 µM) | mean nematode size ln(EXT) (ln) ([2]; 100 µM) | mean nematode size ln(EXT) (ln) ([2]; 200 µM)
CCCCCCCCC(=O)O [Nonanoic acid] | > 200 µM | 5.86 | 5.94 | 5.94 | 5.91 | 5.89 | 5.93 | 5.83
OCCOCCO [Diethylene glycol] | > 200 µM | 5.91 | 5.95 | 5.92 | 5.86 | 5.92 | 5.78 | 5.69
O=[N+]([O-])C(CO)(CO)CO [Tris(hydroxymethyl)nitromethane] | > 200 µM | 5.91 | 5.9 | 5.92 | 5.75 | 5.92 | 5.89 | 5.75
COc1cc(-c2ccc(N)c(OC)c2)ccc1N [3,3'-Dimethoxybenzidine)] | > 200 µM | 6 | 6.08 | 6.05 | 6.07 | 6.06 | 6.03 | 5.74
Nc1cccc2c(N)cccc12 [1,5-Diaminonaphthalene] | > 200 µM | 5.81 | 5.79 | 5.81 | 5.77 | 5.64 | 5.53 | 5.73
O=[N+]([O-])c1ccc(O)cc1 [4-Nitrophenol] | > 200 µM | 5.92 | 5.82 | 5.87 | 5.69 | 5.89 | 5.8 | 5.8
COc1cc(OC)nc(Sc2cccc(Cl)c2C(=O)O)n1 [Pyrithiobac-sodium] | > 200 µM | 5.98 | 6 | 6.11 | 6.18 | 6.06 | 6.1 | 5.69
Cc1cccc(Nc2cc(Cl)nc(SCC(=O)O)n2)c1C [Pirinixic acid] | > 200 µM | 6.05 | 5.95 | 5.99 | 5.97 | 5.94 | 5.77 | 5.93
Oc1ccc(Cl)cc1Cl [2,4-Dichlorophenol] | > 200 µM | 6.05 | 6.13 | 6.07 | 6.04 | 6.03 | 6.03 | 6.92
COCCO [Methyl cellusolve] | > 200 µM | 5.86 | 5.94 | 6.08 | 6.07 | 5.99 | 6.03 | 6.06
Cc1ccc(N=C=O)cc1N=C=O [Toluene-2,4-diisocyanate] | > 200 µM | 5.73 | 5.8 | 5.73 | 5.78 | 5.7 | 5.61 | 5.67
ClC(Cl)c1ccccc1 [Benzal chloride] | > 200 µM | 5.81 | 5.83 | 5.86 | 5.78 | 5.85 | 5.89 | 5.68
CCCCc1ccccc1 [Butylbenzene] | > 200 µM | 5.65 | 5.67 | 5.69 | 5.67 | 5.53 | 5.6 | 5.75
O=S(=O)(O)c1ccc(N=Nc2c(O)ccc3cc(S(=O)(=O)O)ccc23)cc1 [FD&C Yellow no. 6] | > 200 µM | 5.95 | 5.86 | 5.74 | 5.85 | 5.89 | 5.91 | 5.84
COCC(C)OCC(C)OCC(C)O (centres undefined) [Tripropylene glycol monomethyl ether] | > 200 µM | 5.71 | 6.01 | 5.88 | 5.89 | 5.91 | 5.9 | 5.72
S=C1NCCN1 [Ethylenethiourea] | > 200 µM | 6.18 | 5.97 | 6.08 | 6.19 | 6.12 | 6.12 | 5.69
CCc1cnc(C2=NC(C)(C(C)C)C(=O)N2)c(C(=O)O)c1 (centres undefined) [Imazethapyr] | > 200 µM | 5.99 | 5.93 | 6.06 | 6.15 | 6.12 | 6.24 | 6.05
NNC(=O)c1ccncc1 [Isoniazid] | 200 µM | 5.78 | 5.82 | 5.77 | 5.64 | 5.82 | 5.88 | 5.65
CC(Cl)(Cl)C(=O)O [Dalapon] | > 200 µM | 5.78 | 6.06 | 6.05 | 6.04 | 5.95 | 5.93 | 5.79
CCNc1nc(Cl)nc(NC(C)(C)C#N)n1 [Cyanazine] | > 200 µM | 5.89 | 5.95 | 5.88 | 6.03 | 6.26 | 6.42 | 5.86
NC(N)=O [Urea] | > 200 µM | 5.83 | 5.73 | 5.79 | 5.7 | 5.77 | 5.86 | 5.74
O=C(O)CC(O)(CC(=O)O)C(=O)O [Citric acid] | > 200 µM | 5.85 | 6.03 | 6.03 | 5.9 | 5.99 | 5.63 | 5.73
Nc1ccc(-c2ccc(N)cc2)cc1 [Benzidine] | > 200 µM | 6.06 | 6.02 | 5.91 | 5.98 | 5.81 | 5.75 | 5.97
Nc1c(Cl)c(Cl)nc(C(=O)O)c1Cl [Picloram] | > 200 µM | 6.16 | 6.06 | 6.09 | 6.14 | 6.12 | 6.14 | 5.97
COc1ccc2c(c1)c(CC(=O)O)c(C)n2C(=O)c1ccc(Cl)cc1 [Indomethacin] | > 200 µM | 6.03 | 5.93 | 5.95 | 5.96 | 5.93 | 5.93 | 5.83
O=C(O)c1nc(Cl)ccc1Cl [Clopyralid-olamine] | > 200 µM | 5.87 | 5.89 | 5.95 | 5.89 | 5.88 | 5.98 | 5.95
